Assay results: patent publication US11564394B2, “Distorted gold (I)-phosphine complexes and methods for use as antifungal agents” (University of Kentucky Research Foundation, priority 2019, dated 2023)

Assays:
[1] = tested on: C. albicans ATCC 90819(R) (strain G); type: cell-based, Candida albicans; conditions: strain G = C. albicans ATCC 90819(R); MIC-0; 48 h; listed as printed without letter, below G
[2] = tested on: C. glabrata ATCC 2001 (strain H); assay: MIC determination (broth microdilution); type: cell-based, Candida glabrata; conditions: strain H = C. glabrata ATCC 2001; MIC-0; 48 h at 35° C.
[3] = tested on: A. flavus ATCC MYA-3631 (strain S); assay: MIC determination (broth microdilution); type: cell-based, Aspergillus flavus; conditions: strain S = A. flavus ATCC MYA-3631; MIC-0; 72 h at 35° C.
[4] = tested on: C. auris AR Bank # 0384 (strain K); assay: MIC determination (broth microdilution); type: cell-based, Candida auris; conditions: strain K = C. auris AR Bank # 0384; MIC-0; 48 h (CAS read at 24 h); Table 1; also in Table 2
[5] = tested on: C. krusei ATCC 6258 (strain I); assay: MIC determination (broth microdilution); type: cell-based; conditions: strain I = C. krusei ATCC 6258; MIC-0; 48 h; listed as split over r16 and r17 (r17 printed beside letter J)
[6] = tested on: C. neoformans CN3 (strain P); assay: MIC determination (broth microdilution); type: cell-based, Cryptococcus neoformans; conditions: MIC-0, 72 h at 35° C.
[7] = tested on: F. graminearum 053 (strain T); type: cell-based, Fusarium graminearum; conditions: strain T = F. graminearum 053; MIC-0; room temperature, 5 days
[8] = tested on: C. neoformans CN1 (strain N); assay: MIC determination (broth microdilution); type: cell-based, Cryptococcus neoformans; conditions: MIC-0, 72 h at 35° C.
[9] = tested on: C. neoformans CN2 (strain O); assay: MIC determination (broth microdilution); type: cell-based, Cryptococcus neoformans; conditions: MIC-0, 72 h at 35° C.
[10] = tested on: C. albicans ATCC MYA-2876(S) (strain E); assay: MIC determination (broth microdilution); type: cell-based, Candida albicans; conditions: strain E = C. albicans ATCC MYA-2876(S); MIC-0; 48 h; listed as printed beside letter F
[11] = tested on: C. auris AR Bank # 0390 (strain L); assay: MIC determination (broth microdilution); type: cell-based, Candida auris; conditions: strain L = C. auris AR Bank # 0390; MIC-0; 48 h (CAS read at 24 h); Table 1 row printed without letter, below L; also in Table 2
[12] = tested on: C. albicans ATCC MYA-1237(R) (strain C); type: cell-based, Candida albicans; conditions: strain C = C. albicans ATCC MYA-1237(R); MIC-0; 48 h; listed as printed beside letter D
[13] = tested on: C. parapsilosis ATCC 22019 (strain J); assay: MIC determination (broth microdilution); type: cell-based; conditions: strain J = C. parapsilosis ATCC 22019; MIC-0; 48 h; listed as printed beside letter K
[14] = tested on: A. nidulans ATCC 38163 (strain Q); assay: MIC determination (broth microdilution); type: cell-based, Aspergillus nidulans; conditions: strain Q = A. nidulans ATCC 38163; MIC-0; 72 h at 35° C.
[15] = tested on: C. neoformans ATCC MYA-85 (strain M); assay: MIC determination (broth microdilution); type: cell-based, Cryptococcus neoformans; conditions: strain M = C. neoformans ATCC MYA-85; MIC-0; 72 h at 35° C.
[16] = tested on: C. albicans ATCC 10231(R) (strain B); type: cell-based, Candida albicans
[17] = tested on: A. terreus ATCC MYA-3633 (strain R); type: cell-based, Aspergillus terreus; conditions: strain R = A. terreus ATCC MYA-3633; MIC-0; 72 h at 35° C.
[18] = tested on: fungal strains (Candida spp., Cryptococcus spp., Aspergillus spp., Fusarium spp.); assay: MIC determination, summary statements over the strain panel; type: cell-based; conditions: for antifungal activity: Aspergillus spp., Fusarium spp. and most of the non-albicans Candida strains; for overall assessment as antifungals: panel of twenty fungal strains (Table 1)
[19] = tested on: C. albicans ATCC MYA-2310(S) (strain D); assay: MIC determination (broth microdilution); type: cell-based, Candida albicans; conditions: strain D = C. albicans ATCC MYA-2310(S); MIC-0; 48 h; listed as printed beside letter E
[20] = tested on: C. albicans ATCC 64124(R) (strain F); type: cell-based, Candida albicans; conditions: strain F = C. albicans ATCC 64124(R); MIC-0; 48 h; listed as printed beside letter G
[21] = tested on: C. albicans ATCC MYA-1003(R) (strain A); type: cell-based, Candida albicans; conditions: strain A = C. albicans ATCC MYA-1003(R); MIC-0; 48 h at 35° C.

[Cl][Au-][P+](c1ccccc1)(c1ccccc1)c1ccccc1[P+]([Au-][Cl])(c1ccccc1)c1ccccc1 [Compound 1, [1,2-bis(diphenylphosphino)benzene]digold(I)]
MIC [1]: 7.8 µg/mL | MIC (in parentheses) [1]: 8.6 µM | MIC [2]: 7.8 µg/mL | MIC (in parentheses) [2]: 8.6 µM | MIC [3]: > 31.3 µg/mL | MIC (in parentheses) [3]: > 34.3 µM | MIC [4]: > 31.3 µg/mL | MIC (in parentheses) [4]: > 34.3 µM | MIC [5]: 15.6 µg/mL | MIC (in parentheses) [5]: 17.1 µM | MIC [6]: 15.6 µg/mL | MIC (in parentheses) [6]: 17.1 µM | MIC [7]: > 31.3 µg/mL | MIC (in parentheses) [7]: > 34.3 µM | MIC [8]: 3.9 µg/mL | MIC (in parentheses) [8]: 4.3 µM | MIC [9]: 3.9 µg/mL | MIC (in parentheses) [9]: 4.3 µM | MIC [10]: 7.8 µg/mL | MIC (in parentheses) [10]: 8.6 µM | MIC [11]: > 31.3 µg/mL | MIC (in parentheses) [11]: > 34.3 µM | MIC [12]: 0.49 µg/mL | MIC (in parentheses) [12]: 5.4 µM | MIC [13]: 15.6 µg/mL | MIC (in parentheses) [13]: 17.1 µM | MIC [14]: > 31.3 µg/mL | MIC (in parentheses) [14]: > 34.3 µM | MIC [15]: 0.98 µg/mL | MIC (in parentheses) [15]: 1.1 µM | MIC [16]: 15.6 (17.1) μg/mL | MIC (in parentheses) [16]: 15.6 (17.1) μM | MIC [17]: > 31.3 µg/mL | MIC (in parentheses) [17]: > 34.3 µM | antifungal activity [18]: inactive | overall assessment as antifungals [18]: poor antifungals | MIC [19]: 7.8 µg/mL | MIC (in parentheses) [19]: 8.6 µM | MIC [20]: 7.8 µg/mL | MIC (in parentheses) [20]: 8.6 µM | MIC [21]: 3.9 µg/mL | MIC (in parentheses) [21]: 4.3 µM

CC1CCC(C)[P+]1([Au-][Cl])c1ccccc1[P+]1([Au-][Cl])C(C)CCC1C [Compound 5, [1,2-bis[(2R,5R)-2,5-dimethylphospholano]benzene]digold(1)]
MIC [1]: 7.8 µg/mL | MIC (in parentheses) [1]: 10.1 µM | MIC [2]: 15.6 µg/mL | MIC (in parentheses) [2]: 20.2 µM | MIC [3]: > 31.3 µg/mL | MIC (in parentheses) [3]: > 40.6 µM | MIC [4]: > 31.3 µg/mL | MIC (in parentheses) [4]: > 40.6 µM | MIC [5]: 31.3 µg/mL | MIC (in parentheses) [5]: 40.6 µM | MIC [6]: 7.8 µg/mL | MIC (in parentheses) [6]: 10.1 µM | MIC [7]: > 31.3 µg/mL | MIC (in parentheses) [7]: > 40.6 µM | MIC [8]: 15.6 µg/mL | MIC (in parentheses) [8]: 20.2 µM | MIC [9]: 7.8 µg/mL | MIC (in parentheses) [9]: 10.1 µM | MIC [10]: 15.6 µg/mL | MIC (in parentheses) [10]: 20.2 µM | MIC [11]: > 31.3 µg/mL | MIC (in parentheses) [11]: > 40.6 µM | MIC [12]: 15.6 µg/mL | MIC (in parentheses) [12]: 20.2 µM | MIC [13]: 15.6 µg/mL | MIC (in parentheses) [13]: 20.2 µM | MIC [14]: > 31.3 µg/mL | MIC (in parentheses) [14]: > 40.6 µM | MIC [15]: 0.12 µg/mL | MIC (in parentheses) [15]: 0.2 µM | MIC [16]: 31.3 (40.6) μg/mL | MIC (in parentheses) [16]: 31.3 (40.6) μM | MIC [17]: > 31.3 µg/mL | MIC (in parentheses) [17]: > 40.6 µM | antifungal activity [18]: inactive | overall assessment as antifungals [18]: poor antifungals | MIC [19]: 7.8 µg/mL | MIC (in parentheses) [19]: 10.1 µM | MIC [20]: 15.6 µg/mL | MIC (in parentheses) [20]: 20.2 µM | MIC [21]: 3.9 µg/mL | MIC (in parentheses) [21]: 5.1 µM
